Results published in ChEMBL document CHEMBL3585290, “Synthesis and biological evaluation of novel bivalent -carbolines as potential antitumor agents” (Medchemcomm, 2014).

What was measured:
[1] = Cytotoxicity against human BGC823 cells after 48 hrs by MTT assay; format: functional, cell-based; conditions: BGC-823, 48 h
A-375 = test: Cytotoxicity against human A375 cells after 48 hrs by MTT assay; format: functional, cell-based; conditions: A-375, 48 h
769-P = test: Cytotoxicity against human 769-P cells after 48 hrs by MTT assay; format: functional, cell-based
KB = test: Cytotoxicity against human KB cells after 48 hrs by MTT assay; format: functional, cell-based
SK-OV-3 = test: Cytotoxicity against human SKOV3 cells after 48 hrs by MTT assay; format: functional, cell-based; conditions: SK-OV-3, 48 h
[2] = Acute toxicity in ip dosed C57BL/6 mouse measured for 14 days; format: organism-based; conditions: in vivo
CT26 = test: Antitumor activity against mouse CT26 cells implanted in mouse assessed as tumor growth inhibition at 76.9 umol/kg, ip qd administered for 7 days starting 24 hrs post tumor implantation measured after day 21 relative to control; format: functional; conditions: read-out: TGI
[3] = tested on: Lewis lung carcinoma cell line; test: Antitumor activity against mouse LLC cells implanted in mouse assessed as tumor growth inhibition at 76.9 umol/kg, ip qd administered for 7 days starting 24 hrs post tumor implantation measured after day 21 relative to control; format: functional; conditions: read-out: TGI

Structure (SMILES): Cc1nc(C(=O)OCCCOC(=O)c2cc3c4ccccc4n(C)c3c(C)n2)cc2c3ccccc3n(C)c12
- IC50 [1]: 19.5 µM
- IC50 (A-375): 16.6 µM
- IC50 (769-P): 16.3 µM
- IC50 (KB): 18.4 µM
- IC50 (SK-OV-3): 21 µM
- LD50 at 336 h [2]: 385 µmol/kg
- inhibition in vivo at 76.9 µmol/kg (CT26): 23.6%
- inhibition in vivo at 76.9 µmol/kg [3]: 28.1%

Structure (SMILES): Cc1nc(C(=O)OCCCCCCOC(=O)c2cc3c4ccccc4n(C)c3c(C)n2)cc2c3ccccc3n(C)c12
- IC50 [1]: > 200 µM
- IC50 (A-375): 82.6 µM
- IC50 (769-P): 28.3 µM
- IC50 (KB): 165 µM
- IC50 (SK-OV-3): > 200 µM

Structure (SMILES): Cc1nc(C(=O)OCCCCCCCCCCOC(=O)c2cc3c4ccccc4n(C)c3c(C)n2)cc2c3ccccc3n(C)c12
- IC50 [1]: > 200 µM
- IC50 (A-375): 125 µM
- IC50 (769-P): 42.9 µM
- IC50 (KB): 198 µM
- IC50 (SK-OV-3): > 200 µM

Structure (SMILES): CCn1c2ccccc2c2cc(C(=O)OCCCCCCOC(=O)c3cc4c5ccccc5n(CC)c4c(C)n3)nc(C)c21
- IC50 [1]: > 200 µM
- IC50 (A-375): 32.9 µM
- IC50 (769-P): 43.1 µM
- IC50 (KB): 16.5 µM
- IC50 (SK-OV-3): > 200 µM

Structure (SMILES): CCn1c2ccccc2c2cc(C(=O)OCCCCCCCCOC(=O)c3cc4c5ccccc5n(CC)c4c(C)n3)nc(C)c21
- IC50 [1]: > 200 µM
- IC50 (A-375): 86.3 µM
- IC50 (769-P): 21.7 µM
- IC50 (KB): > 200 µM
- IC50 (SK-OV-3): 86.4 µM

Structure (SMILES): CCn1c2ccccc2c2cc(C(=O)OCCCCCCCCCOC(=O)c3cc4c5ccccc5n(CC)c4c(C)n3)nc(C)c21
- IC50 [1]: > 200 µM
- IC50 (A-375): > 200 µM
- IC50 (769-P): 10.3 µM
- IC50 (KB): 56.9 µM
- IC50 (SK-OV-3): > 200 µM

Structure (SMILES): CCCCn1c2ccccc2c2cc(C(=O)OCCCCOC(=O)c3cc4c5ccccc5n(CCCC)c4cn3)ncc21
- IC50 [1]: 116 µM
- IC50 (A-375): > 200 µM
- IC50 (769-P): 42.6 µM
- IC50 (KB): 89 µM
- IC50 (SK-OV-3): 123 µM

Structure (SMILES): CCCCn1c2ccccc2c2cc(C(=O)OCCCCCOC(=O)c3cc4c5ccccc5n(CCCC)c4cn3)ncc21
- IC50 [1]: > 200 µM
- IC50 (A-375): > 200 µM
- IC50 (769-P): 32.9 µM
- IC50 (KB): 53.9 µM
- IC50 (SK-OV-3): > 200 µM

Structure (SMILES): CCCCn1c2ccccc2c2cc(C(=O)OCCCCCCCCOC(=O)c3cc4c5ccccc5n(CCCC)c4cn3)ncc21
- IC50 [1]: 68.9 µM
- IC50 (A-375): 146 µM
- IC50 (769-P): 210 µM
- IC50 (KB): 19.8 µM
- IC50 (SK-OV-3): 124 µM

Structure (SMILES): CCCCn1c2ccccc2c2cc(C(=O)OCCCCCCCCCOC(=O)c3cc4c5ccccc5n(CCCC)c4cn3)ncc21
- IC50 [1]: > 200 µM
- IC50 (A-375): 89.6 µM
- IC50 (769-P): 115 µM
- IC50 (KB): 26.4 µM
- IC50 (SK-OV-3): > 200 µM

Structure (SMILES): CCCCn1c2ccccc2c2cc(C(=O)OCCCCCCCCCCOC(=O)c3cc4c5ccccc5n(CCCC)c4cn3)ncc21
- IC50 [1]: 168 µM
- IC50 (A-375): > 200 µM
- IC50 (769-P): 89.2 µM
- IC50 (KB): 45.2 µM
- IC50 (SK-OV-3): > 200 µM

Structure (SMILES): CCCCn1c2ccccc2c2cc(C(=O)OCCCCCCOC(=O)c3cc4c5ccccc5n(CCCC)c4c(C)n3)nc(C)c21
- IC50 [1]: > 200 µM
- IC50 (A-375): > 200 µM
- IC50 (769-P): 60.5 µM
- IC50 (KB): 54.6 µM
- IC50 (SK-OV-3): > 200 µM

Structure (SMILES): CCCCn1c2ccccc2c2cc(C(=O)OCCCCCCCOC(=O)c3cc4c5ccccc5n(CCCC)c4c(C)n3)nc(C)c21
- IC50 [1]: > 200 µM
- IC50 (A-375): > 200 µM
- IC50 (769-P): 95.9 µM
- IC50 (KB): > 200 µM
- IC50 (SK-OV-3): 71.5 µM

Structure (SMILES): CCCCn1c2ccccc2c2cc(C(=O)OCCCCCCCCCCOC(=O)c3cc4c5ccccc5n(CCCC)c4c(C)n3)nc(C)c21
- IC50 [1]: > 200 µM
- IC50 (A-375): 42 µM
- IC50 (769-P): 114 µM
- IC50 (KB): > 200 µM
- IC50 (SK-OV-3): > 200 µM

Structure (SMILES): O=C(OCCCCOC(=O)c1cc2c3ccccc3n(Cc3ccccc3)c2cn1)c1cc2c3ccccc3n(Cc3ccccc3)c2cn1
- IC50 [1]: 43.6 µM
- IC50 (A-375): 7.9 µM
- IC50 (769-P): 45.4 µM
- IC50 (KB): > 200 µM
- IC50 (SK-OV-3): > 200 µM

Structure (SMILES): O=C(OCCCCCCOC(=O)c1cc2c3ccccc3n(Cc3ccccc3)c2cn1)c1cc2c3ccccc3n(Cc3ccccc3)c2cn1
- IC50 [1]: 164 µM
- IC50 (A-375): > 200 µM
- IC50 (769-P): 46.8 µM
- IC50 (KB): 15.7 µM
- IC50 (SK-OV-3): 27.8 µM

Structure (SMILES): O=C(OCCCCCCCCOC(=O)c1cc2c3ccccc3n(Cc3ccccc3)c2cn1)c1cc2c3ccccc3n(Cc3ccccc3)c2cn1
- IC50 [1]: > 200 µM
- IC50 (A-375): > 200 µM
- IC50 (769-P): 68.6 µM
- IC50 (KB): 162 µM
- IC50 (SK-OV-3): > 200 µM

Structure (SMILES): Cc1nc(C(=O)OCCCCCOC(=O)c2cc3c4ccccc4n(Cc4ccccc4)c3c(C)n2)cc2c3ccccc3n(Cc3ccccc3)c12
- IC50 [1]: > 200 µM
- IC50 (A-375): 125 µM
- IC50 (769-P): 72.4 µM
- IC50 (KB): 42.4 µM
- IC50 (SK-OV-3): > 200 µM

Structure (SMILES): Cc1nc(C(=O)OCCCCCCOC(=O)c2cc3c4ccccc4n(Cc4ccccc4)c3c(C)n2)cc2c3ccccc3n(Cc3ccccc3)c12
- IC50 [1]: > 200 µM
- IC50 (A-375): > 200 µM
- IC50 (769-P): 64.7 µM
- IC50 (KB): 112 µM
- IC50 (SK-OV-3): > 200 µM

Structure (SMILES): O=C(OCCCCCCOC(=O)c1cc2c3ccccc3n(Cc3cccc(Cl)c3)c2cn1)c1cc2c3ccccc3n(Cc3cccc(Cl)c3)c2cn1
- IC50 [1]: > 200 µM
- IC50 (A-375): > 200 µM
- IC50 (769-P): 21.9 µM
- IC50 (KB): 46.9 µM
- IC50 (SK-OV-3): 19 µM

Structure (SMILES): O=C(OCCCCCCCCCOC(=O)c1cc2c3ccccc3n(Cc3cccc(Cl)c3)c2cn1)c1cc2c3ccccc3n(Cc3cccc(Cl)c3)c2cn1
- IC50 [1]: > 200 µM
- IC50 (A-375): > 200 µM
- IC50 (769-P): 145 µM
- IC50 (KB): 71.2 µM
- IC50 (SK-OV-3): > 200 µM

Structure (SMILES): O=C(OCCCOC(=O)c1cc2c3ccccc3n(CCCc3ccccc3)c2cn1)c1cc2c3ccccc3n(CCCc3ccccc3)c2cn1
- IC50 [1]: > 200 µM
- IC50 (A-375): > 200 µM
- IC50 (769-P): 95.6 µM
- IC50 (KB): 72.4 µM
- IC50 (SK-OV-3): > 200 µM

Structure (SMILES): O=C(OCCCCCCCOC(=O)c1cc2c3ccccc3n(CCCc3ccccc3)c2cn1)c1cc2c3ccccc3n(CCCc3ccccc3)c2cn1
- IC50 [1]: > 200 µM
- IC50 (A-375): 143 µM
- IC50 (769-P): 43.5 µM
- IC50 (KB): 78.9 µM
- IC50 (SK-OV-3): > 200 µM

Structure (SMILES): Cc1nc(C(=O)OCCCCCCOC(=O)c2cc3c4ccccc4n(CCCc4ccccc4)c3c(C)n2)cc2c3ccccc3n(CCCc3ccccc3)c12
- IC50 [1]: > 200 µM
- IC50 (A-375): > 200 µM
- IC50 (769-P): 21.8 µM
- IC50 (KB): > 200 µM
- IC50 (SK-OV-3): 73.4 µM

Structure (SMILES): Cc1nc(C(=O)OCCCCCCCCCOC(=O)c2cc3c4ccccc4n(CCCc4ccccc4)c3c(C)n2)cc2c3ccccc3n(CCCc3ccccc3)c12
- IC50 [1]: > 200 µM
- IC50 (A-375): > 200 µM
- IC50 (769-P): 108 µM
- IC50 (KB): 50.7 µM
- IC50 (SK-OV-3): > 200 µM

Structure (SMILES): CCn1c2ccccc2c2cc(C(=O)OCCCCCCOC(=O)c3cc4c5ccccc5n(CC)c4c(-c4ccc(OC)cc4)n3)nc(-c3ccc(OC)cc3)c21
- IC50 [1]: > 200 µM
- IC50 (A-375): > 200 µM
- IC50 (769-P): 65.9 µM
- IC50 (KB): 89.2 µM
- IC50 (SK-OV-3): > 200 µM

Structure (SMILES): CCn1c2ccccc2c2cc(C(=O)OCCCCCCOC(=O)c3cc4c5ccccc5n(CC)c4c(-c4cc(OC)c(OC)c(OC)c4)n3)nc(-c3cc(OC)c(OC)c(OC)c3)c21
- IC50 [1]: 159 µM
- IC50 (A-375): 40.4 µM
- IC50 (769-P): 10.9 µM
- IC50 (KB): 20.7 µM
- IC50 (SK-OV-3): 47.4 µM

Structure (SMILES): COc1cc(-c2nc(C(=O)OCCCCCCOC(=O)c3cc4c5ccccc5n(CCCc5ccccc5)c4c(-c4cc(OC)c(OC)c(OC)c4)n3)cc3c4ccccc4n(CCCc4ccccc4)c23)cc(OC)c1OC
- IC50 [1]: 168 µM
- IC50 (A-375): 134 µM
- IC50 (769-P): 118 µM
- IC50 (KB): > 200 µM
- IC50 (SK-OV-3): > 200 µM
